Test results reported in ChEMBL document CHEMBL2311357, “Aminoalkyl derivatives of guanidine diaromatic minor groove binders with antiprotozoal activity” (J Med Chem, 2013).

Key:
Salmonidae = experiment: Binding affinity to salmon sperm DNA in 10 mM phosphate buffer assessed as change in melting temperature at 15 uM by thermal denaturation assay
[1] = Selectivity index, ratio of IC50 for rat L6 cells to IC50 for Plasmodium falciparum NF54; format: toxicity, cell-based; conditions: L6 cells versus Plasmodium falciparum NF54, read-out: Ratio IC50
Plasmodium falciparum = experiment: Antimalarial activity against erythrocytic stage of Plasmodium falciparum NF54 assessed as incorporation of [3H]hypoxanthine after 48 hrs by scintillation counting analysis; format: functional, organism-based
[2] = Selectivity index, ratio of IC50 for rat L6 cells to IC50 for Trypanosoma brucei rhodesiense STIB900; format: toxicity, cell-based; conditions: L6 cells versus Trypanosoma brucei rhodesiense STIB900, read-out: Ratio IC50
[3] = Binding affinity to poly(dA-dT) DNA (unknown origin) in Tris-Hcl buffer assessed as change in melting temperature
L6 = experiment: Cytotoxicity against rat L6 cells after 70 hrs by resazurin reduction assay; format: cell-based; conditions: L6, 70 h
unidentified = experiment: Binding affinity to poly(dA-dT) DNA (unknown origin) in PIPES buffer assessed as change in melting temperature
DNA [4] = experiment: Binding affinity to calf thymus DNA in MES buffer assessed as change in melting temperature; format: nucleic-acid assay; conditions: Bos taurus
[5] = tested on: Trypanosoma brucei rhodesiense; experiment: Antitrypanosomal activity against Trypanosoma brucei rhodesiense STIB900 after 70 hrs by resazurin reduction assay; format: functional, organism-based; conditions: STIB900, 70 h
DNA [6] = experiment: Binding affinity to calf thymus DNA in Tris-Hcl buffer assessed as change in melting temperature; format: nucleic-acid assay; conditions: Bos taurus

Q: Which ΔTm (Salmonidae) does the source give for N=C(N)Nc1ccc(Nc2ccc(NC(=O)CCCCCCCN)cc2)cc1 here?
A: 2 °C

Q: With N=C(N)Nc1ccc(C(=O)c2ccc(NC(=O)CCCCCCCCCCN)cc2)cc1 as the compound, how does the ΔTm (Salmonidae) read?
A: 2 °C

Q: Which ΔTm (Salmonidae) does the source give for N=C(N)Nc1ccc(Oc2ccc(N)cc2)cc1 here?
A: 2 °C

Q: With N=C(N)c1ccc(OCCCCCOc2ccc(C(=N)N)cc2)cc1 [PENTAMIDINE] as the compound, how does the selectivity ratio [1] read?
A: 56

Q: And the IC50 (Plasmodium falciparum)?
A: 0.027 µM

Q: What about the selectivity ratio [2] of the same compound?
A: 755

Q: And the ΔTm [3]?
A: 11.1 °C

Q: And the IC50 (L6)?
A: 1.51 µM

Q: And the ΔTm (unidentified)?
A: 12.8 °C

Q: And the ΔTm (DNA [4])?
A: 10.6 °C

Q: What about the IC50 [5] of the same compound?
A: 0.002 µM

Q: What about the ΔTm (DNA [6]) of the same compound?
A: 20.6 °C

Q: For N=C(N)Nc1ccc(Oc2ccc(NC(=O)CCCCN)cc2)cc1, which selectivity ratio [1] is on record?
A: 316

Q: And the IC50 (Plasmodium falciparum)?
A: 0.106 µM

Q: And the selectivity ratio [2]?
A: 3

Q: And the IC50 (L6)?
A: 33.5 µM

Q: What about the ΔTm (Salmonidae) of the same compound?
A: 6 °C

Q: And the IC50 [5]?
A: 13.1 µM

Q: For N=C(N)Nc1ccc(Nc2ccc(NC(=O)CCCCCCCCCCCN)cc2)cc1, which selectivity ratio [1] is on record?
A: 4

Q: And the IC50 (Plasmodium falciparum)?
A: 2.71 µM

Q: And the selectivity ratio [2]?
A: 3

Q: What about the IC50 (L6) of the same compound?
A: 11.9 µM

Q: And the ΔTm (Salmonidae)?
A: 5 °C

Q: What about the IC50 [5] of the same compound?
A: 4.06 µM

Q: For Nc1nc(N)nc(Nc2ccc([As]3SCC(CO)S3)cc2)n1 (configuration not stated) [MELARSOPROL], which IC50 [5] is on record?
A: 0.0055 µM

Q: For N=C(N)Nc1ccc(CCc2ccc(N)cc2)cc1, which ΔTm (Salmonidae) is on record?
A: 0.1 °C

Q: With N=C(N)Nc1ccc(Oc2ccc(NC(=O)CCCCCCCCCCCN)cc2)cc1 as the compound, how does the selectivity ratio [1] read?
A: 13

Q: What about the IC50 (Plasmodium falciparum) of the same compound?
A: 1.71 µM

Q: What about the IC50 (L6) of the same compound?
A: 22.4 µM

Q: And the ΔTm (Salmonidae)?
A: 2 °C

Q: Which selectivity ratio [1] does the source give for N=C(N)Nc1ccc(Oc2ccc(NC(=O)CCCN)cc2)cc1 here?
A: 197

Q: What about the IC50 (Plasmodium falciparum) of the same compound?
A: 0.88 µM

Q: And the IC50 (L6)?
A: 173 µM

Q: What about the ΔTm (Salmonidae) of the same compound?
A: 1.2 °C

Q: With N=C(N)Nc1ccc(Nc2ccc(NC(=O)CCCCN)cc2)cc1 as the compound, how does the selectivity ratio [1] read?
A: 153

Q: And the IC50 (Plasmodium falciparum)?
A: 1.46 µM

Q: What about the selectivity ratio [2] of the same compound?
A: 4

Q: What about the IC50 (L6) of the same compound?
A: 223 µM

Q: And the ΔTm (Salmonidae)?
A: 6.1 °C

Q: And the IC50 [5]?
A: 57.7 µM

Q: With N=C(N)Nc1ccc(C(=O)c2ccc(NC(=O)CCCCCCCCCCCN)cc2)cc1 as the compound, how does the selectivity ratio [1] read?
A: 5

Q: And the IC50 (Plasmodium falciparum)?
A: 1.98 µM

Q: And the IC50 (L6)?
A: 10.6 µM

Q: What about the ΔTm (Salmonidae) of the same compound?
A: 2.1 °C

Q: For N=C(N)Nc1ccc(CCc2ccc(NC(=O)CCCCCCCN)cc2)cc1, which ΔTm (Salmonidae) is on record?
A: 2 °C

Q: For N=C(N)Nc1ccc(C(=O)c2ccc(NC(=O)CCCN)cc2)cc1, which ΔTm (Salmonidae) is on record?
A: 5.1 °C

Q: Which results are given for N=C(N)Nc1ccc(Oc2ccc(NC(=O)CCCCCCCN)cc2)cc1?
A: selectivity ratio [1]: 913; IC50 (Plasmodium falciparum): 0.149 µM; selectivity ratio [2]: 4; IC50 (L6): 136 µM; ΔTm (Salmonidae): 2.1 °C; IC50 [5]: 31.9 µM

Q: With N=C(N)Nc1ccc(C(=O)c2ccc(NC(=O)CCCCN)cc2)cc1 as the compound, how does the selectivity ratio [1] read?
A: 55

Q: And the IC50 (Plasmodium falciparum)?
A: 2.55 µM

Q: What about the selectivity ratio [2] of the same compound?
A: 1

Q: And the IC50 (L6)?
A: 140 µM

Q: And the ΔTm (Salmonidae)?
A: 5.2 °C

Q: What about the IC50 [5] of the same compound?
A: 121 µM

Q: With N=C(N)Nc1ccc(Nc2ccc(NC(=N)N)cc2)cc1 as the compound, how does the ΔTm (Salmonidae) read?
A: 8 °C

Q: With N=C(N)Nc1ccc(C(=O)c2ccc(N)cc2)cc1 as the compound, how does the ΔTm (Salmonidae) read?
A: 0 °C

Q: Which selectivity ratio [1] does the source give for N=C(N)Nc1ccc(Cc2ccc(NC(=O)CCCCCCCCCCN)cc2)cc1 here?
A: 15

Q: What about the IC50 (Plasmodium falciparum) of the same compound?
A: 2.02 µM

Q: And the IC50 (L6)?
A: 30.3 µM

Q: What about the ΔTm (Salmonidae) of the same compound?
A: 0 °C

Q: For N=C(N)Nc1ccc(C(=O)c2ccc(NC(=N)N)cc2)cc1, which ΔTm (Salmonidae) is on record?
A: 4.2 °C

Q: Which ΔTm (Salmonidae) does the source give for N=C(N)Nc1ccc(Cc2ccc(N)cc2)cc1 here?
A: 3 °C

Q: With N=C(N)Nc1ccc(Oc2ccc(NC(=O)CCCCCCCCCCN)cc2)cc1 as the compound, how does the selectivity ratio [1] read?
A: 44

Q: What about the IC50 (Plasmodium falciparum) of the same compound?
A: 1.41 µM

Q: What about the IC50 (L6) of the same compound?
A: 62.3 µM

Q: And the ΔTm (Salmonidae)?
A: 2 °C

Q: What does the source list for N=C(N)Nc1ccc(CCc2ccc(NC(=O)CCCCN)cc2)cc1?
A: selectivity ratio [1]: 103; IC50 (Plasmodium falciparum): 1.06 µM; selectivity ratio [2]: 5; IC50 (L6): 109 µM; ΔTm (Salmonidae): 5.1 °C; IC50 [5]: 20.2 µM

Q: Which ΔTm (Salmonidae) does the source give for N=C(N)Nc1ccc(Cc2ccc(NC(=N)N)cc2)cc1 here?
A: 8.1 °C

Q: For N=C(N)Nc1ccc(Nc2ccc(N)cc2)cc1, which ΔTm (Salmonidae) is on record?
A: 2.1 °C

Q: For N=C(N)Nc1ccc(Cc2ccc(NC(=O)CCCCCCCCCCCN)cc2)cc1, which selectivity ratio [1] is on record?
A: 10

Q: And the IC50 (Plasmodium falciparum)?
A: 2.32 µM

Q: What about the IC50 (L6) of the same compound?
A: 23.8 µM

Q: What about the ΔTm (Salmonidae) of the same compound?
A: 0.1 °C

Q: Which ΔTm (Salmonidae) does the source give for N=C(N)Nc1ccc(Cc2ccc(NC(=O)CCCCCCCN)cc2)cc1 here?
A: 0.1 °C

Q: Which selectivity ratio [1] does the source give for N=C(N)Nc1ccc(Cc2ccc(NC(=O)CCCN)cc2)cc1 here?
A: 79

Q: And the IC50 (Plasmodium falciparum)?
A: 2.62 µM

Q: And the IC50 (L6)?
A: 207 µM

Q: What about the ΔTm (Salmonidae) of the same compound?
A: 1 °C

Q: With N=C(N)Nc1ccc(CCc2ccc(NC(=O)CCCCCCCCCCN)cc2)cc1 as the compound, how does the selectivity ratio [1] read?
A: 12

Q: What about the IC50 (Plasmodium falciparum) of the same compound?
A: 5.79 µM

Q: What about the IC50 (L6) of the same compound?
A: 70.6 µM

Q: What about the ΔTm (Salmonidae) of the same compound?
A: 1.1 °C

Q: With N=C(N)Nc1ccc(Nc2ccc(NC(=O)CCCCCCCCCCN)cc2)cc1 as the compound, how does the selectivity ratio [1] read?
A: 41

Q: And the IC50 (Plasmodium falciparum)?
A: 3.79 µM

Q: And the selectivity ratio [2]?
A: 2

Q: And the IC50 (L6)?
A: 157 µM

Q: And the ΔTm (Salmonidae)?
A: 3.1 °C

Q: And the IC50 [5]?
A: 85.4 µM

Q: Which selectivity ratio [1] does the source give for N=C(N)Nc1ccc(Cc2ccc(NC(=O)CCCCN)cc2)cc1 here?
A: 179

Q: What about the IC50 (Plasmodium falciparum) of the same compound?
A: 0.589 µM

Q: And the IC50 (L6)?
A: 105 µM

Q: And the ΔTm (Salmonidae)?
A: 4 °C

Q: With N=C(N)Nc1ccc(Nc2ccc(NC(=O)CCCN)cc2)cc1 as the compound, how does the selectivity ratio [1] read?
A: 106

Q: What about the IC50 (Plasmodium falciparum) of the same compound?
A: 1.2 µM

Q: What about the IC50 (L6) of the same compound?
A: 127 µM

Q: And the ΔTm (Salmonidae)?
A: 1 °C

Q: For N=C(N)Nc1ccc(CCc2ccc(NC(=O)CCCN)cc2)cc1, which selectivity ratio [1] is on record?
A: 116

Q: And the IC50 (Plasmodium falciparum)?
A: 1.14 µM

Q: And the selectivity ratio [2]?
A: 10

Q: And the IC50 (L6)?
A: 133 µM

Q: What about the ΔTm (Salmonidae) of the same compound?
A: 5 °C

Q: What about the IC50 [5] of the same compound?
A: 13.3 µM

Q: Which ΔTm (Salmonidae) does the source give for N=C(N)Nc1ccc(CCc2ccc(NC(=O)CCCCCCCCCCCN)cc2)cc1 here?
A: 1.1 °C
